Measurements taken from the supplement of paper PMC10307832.

How the values were obtained:
Assay in all cases: relative viability (nuclei count vs DMSO), 5 days (fraction); higher = more cells survive
XMD14-99 + Tozasertib = compound: CN1CCN(CC1)C2=CC(=C(C=C2)NC3=NC(=C(S3)C(=O)C4=C(C=CC=C4Cl)Cl)N)OC [XMD14-99] + Cc1cc(Nc2cc(N3CCN(C)CC3)nc(Sc3ccc(NC(=O)C4CC4)cc3)n2)n[nH]1 [Tozasertib] (partner 0.1 µM)
In short: (§1)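 A single step with final 0.05% Triton X-100, 1% formaldehyde and 1 ug/ml Hoechst fixed the cells and stained nuclei 5 days after treatment. Lung cancer cell lines in 1536-well plates had been treated by pin tool the day after seeding with one drug alone or a fixed anchor-drug dose plus five library-drug doses (not always all listed) in √10 steps, and nuclei were counted on 4× images. Relative viability is the ratio of nuclei in treated wells to nuclei in vehicle wells, taken as the median of duplicate plates.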

AZD1208 + Pemetrexed = compound: N[C@@H]1CCCN(c2c(/C=C3\SC(=O)NC3=O)cccc2-c2ccccc2)C1 [AZD1208] + Nc1nc2[nH]cc(CCc3ccc(C(=O)N[C@@H](CCC(=O)O)C(=O)O)cc3)c2c(=O)[nH]1 [Pemetrexed] (partner 0.2 µM)
In short: as §1

AZD1208 + Crizotinib = compound: N[C@@H]1CCCN(c2c(/C=C3\SC(=O)NC3=O)cccc2-c2ccccc2)C1 [AZD1208] + C[C@@H](Oc1cc(-c2cnn(C3CCNCC3)c2)cnc1N)c1c(Cl)ccc(F)c1Cl [Crizotinib] (partner 1 µM)
In short: as §1

AZD1208 + Navitoclax = compound: N[C@@H]1CCCN(c2c(/C=C3\SC(=O)NC3=O)cccc2-c2ccccc2)C1 [AZD1208] + CC1(C)CCC(c2ccc(Cl)cc2)=C(CN2CCN(c3ccc(C(=O)NS(=O)(=O)c4ccc(N[C@H](CCN5CCOCC5)CSc5ccccc5)c(S(=O)(=O)C(F)(F)F)c4)cc3)CC2)C1 [Navitoclax] (partner 0.5 µM)
In short: as §1

Row | Cell Line | relative viability (XMD14-99 + Tozasertib; first compound 0.08 µM) | relative viability (XMD14-99 + Tozasertib; first compound 0.8 µM) | relative viability (XMD14-99 + Tozasertib; first compound 2.53 µM) | relative viability (XMD14-99 + Tozasertib; first compound 8 µM) | relative viability (AZD1208 + Pemetrexed; first compound 0.08 µM) | relative viability (AZD1208 + Pemetrexed; first compound 0.253 µM) | relative viability (AZD1208 + Pemetrexed; first compound 0.8 µM) | relative viability (AZD1208 + Pemetrexed; first compound 2.53 µM) | relative viability (AZD1208 + Pemetrexed; first compound 8 µM) | relative viability (AZD1208 + Crizotinib; first compound 0.08 µM) | relative viability (AZD1208 + Crizotinib; first compound 0.253 µM) | relative viability (AZD1208 + Crizotinib; first compound 0.8 µM) | relative viability (AZD1208 + Crizotinib; first compound 2.53 µM) | relative viability (AZD1208 + Crizotinib; first compound 8 µM) | relative viability (AZD1208 + Navitoclax; first compound 0.08 µM) | relative viability (AZD1208 + Navitoclax; first compound 0.253 µM) | relative viability (AZD1208 + Navitoclax; first compound 0.8 µM) | relative viability (AZD1208 + Navitoclax; first compound 2.53 µM) | relative viability (AZD1208 + Navitoclax; first compound 8 µM)
1 | LCLC-103H | 0.494 | 0.487 | 0.465 | 0.44 | 0.453 | 0.46 | 0.51 | 0.43 | 0.477 | 1.03 | 1.11 | 1.05 | 1.31 | 1.03 | – | – | – | – | –
2 | RERF-LC-KJ | 0.507 | 0.464 | 0.408 | 0.374 | 0.515 | 0.441 | 0.505 | 0.476 | 0.491 | 0.868 | 0.863 | 0.835 | 0.791 | 0.792 | 1.03 | 0.908 | 0.959 | 0.921 | 0.662
3 | Calu-6 | – | – | – | – | – | – | – | – | – | 0.615 | 0.952 | 0.672 | 0.711 | 0.758 | 0.737 | 0.916 | 0.906 | 0.833 | 0.822
4 | NCI-H358 | 0.0889 | 0.102 | 0.0882 | 0.0609 | 0.153 | 0.181 | 0.167 | 0.173 | 0.145 | 0.537 | 0.559 | 0.499 | 0.566 | 0.438 | – | – | – | – | –
5 | NCI-H2342 | 0.483 | 0.628 | 0.591 | 0.516 | 0.869 | 0.749 | 0.699 | 0.738 | 0.568 | – | – | – | – | – | – | – | – | – | –
6 | EBC-1 | – | – | – | – | – | – | – | – | – | 0.19 | 0.171 | 0.174 | 0.165 | 0.183 | 0.317 | 0.326 | 0.297 | 0.334 | 0.298
7 | NCI-H1299 | – | – | – | – | – | – | – | – | – | 0.958 | 1 | 0.933 | 0.969 | 0.963 | 1.1 | 1.09 | 1.08 | 1 | 1.04
8 | NCI-H522 | 0.513 | 0.646 | 0.712 | 0.639 | 0.975 | 0.986 | 0.979 | 0.824 | 0.828 | – | – | – | – | – | – | – | – | – | –
9 | IA-LM | – | – | – | – | – | – | – | – | – | 0.827 | 0.724 | 0.797 | 0.669 | 0.748 | 0.812 | 0.865 | 0.651 | 0.621 | 0.794
10 | NCI-H650 | 0.747 | 0.688 | 0.667 | 0.581 | 0.893 | 0.939 | 0.893 | 0.703 | 0.867 | 0.704 | 0.723 | 0.577 | 0.576 | 0.643 | – | – | – | – | –
11 | NCI-H661 | 0.355 | 0.337 | 0.37 | 0.338 | 0.956 | 0.9 | 0.94 | 0.942 | 0.955 | 1.02 | 1 | – | 1 | 1.08 | – | – | – | – | –
12 | NCI-H727 | 0.661 | 0.558 | 0.532 | 0.342 | – | – | – | – | – | 0.795 | 0.863 | 0.819 | 0.789 | 0.703 | 0.421 | 0.357 | 0.331 | 0.316 | 0.29
13 | NCI-H1793 | 0.329 | 0.377 | 0.34 | 0.28 | 0.828 | 0.954 | 0.716 | 0.935 | 0.718 | – | – | – | – | – | 0.336 | 0.47 | 0.354 | 0.469 | 0.364
